This is an account of results in patent publication US20240182407A1, “QUINOLINE COMPOUND SALT OR CRYSTAL FORM, PREPARATION METHOD THEREFOR, AND APPLICATION THEREOF” (Nanjing Zenshine Pharmaceuticals Co., Ltd., priority 2021, published 2024).

The nature of data set [1]: Solubility in simulated gastrointestinal fluids (SGF, FeSSIF, FaSSIF) at 37° C. Format: physicochemical. Particulars: for Solubility: 37° C. On the procedure: The solubilities of Compound A and p-toluenesulfonate (Sample 5, crystal form I) in simulated gastrointestinal fluids (SGF, FeSSIF and FaSSIF) at 37° C. were tested.
About 7.5 mg of Compound A and p-toluenesulfonate were separately added to 1.5 mL of three biological vehicles to prepare suspensions. All the suspensions were placed in a shaker at 37° C. and shaken at 200 rpm for 24 h, and about 0.5 mL was sampled separately at 0.5 h, 2 h and 24 h for filtration. The obtained filtrates were subjected to HPLC analysis and pH measurement, and the filter cakes were respectively measured by XRPD.

Data set [2] in a line: Solid stability, 40° C./75% RH and 60° C., one week (HPLC purity, XRPD). Format: physicochemical. The conditions noted are these: solid. On the procedure: Appropriate amounts of Compound A and p-toluenesulfonate of Compound A (Sample 5, crystal form I) were respectively placed in 40° C./75% RH and 60° C. environments for one week to determine solid stability. At days 0 and 7, HPLC purity analysis and solid XRPD determination were carried out, and some of the results were as shown in Table 7.

Data set [3] relates to human-derived lymphoma DoHH-2 cell line. The experiment in a line: Human-derived lymphoma DoHH-2 subcutaneous xenograft in CB17/SCID female immunodeficient mice. Format: in vivo, mouse. The conditions noted are these: 50 mg/kg p.o. BID, Day 24. The protocol: In Example 8, the anti-tumor effects of p-toluenesulfonate of Compound A at various dosages by intragastric administration on human-derived lymphoma DoHH-2 cell line subcutaneous transplantation CB17/SCID female immunodeficient mouse model were evaluated.
7-9-week-old CB17/SCID female immunodeficient mice were subcutaneously inoculated with […] DoHH-2 cells to establish a subcutaneous human lymphoma xenograft tumor model. When the average tumor volume in the mice reached 68 mm^3, the mice were randomly divided into groups and dosed on the day of grouping. The treatment method for each treatment group and vehicle control group was as follows:
p-toluenesulfonate of Compound A (Sample 6), given 100 mg/kg (p.o. QD) group, once daily, for 25 days (days 0-24);
p-toluenesulfonate of Compound A (Sample 6), given 30 mg/kg (p.o. QD) group, once daily, for 25 days (days 0-24);
positive treatment group (Duvelisib, purchased from Shanghai Lollane biological technology Co., Ltd.), given 50 mg/kg (p.o. BID) twice daily with an interval of 12 h, for 24 days; and
vehicle control group (5% DMSO/40% PEG400/55% water, by volume) (p.o. QD), given once daily, for 25 days (days 0-24).
There were 10 mice in each group, and all the mice were administered starting on the day of grouping (Day 0) and euthanized on Day 24 after grouping (Day 24). The efficacy was evaluated according to the tumor volume at the end point of the experiment.
The abbreviation p.o. stood for oral gavage, QD stood for once daily, and BID stood for twice daily.
The relative tumor inhibition rate (TGI) was calculated by the following formula: […]
T and C were respectively the average tumor volumes in the experimental group and the vehicle control group at a specific time point.
A general note: A xenograft is tissue or cells of one species grown in another, often human tumour cells in immunodeficient mice.

Values after ≈ are worked out from the molar mass of the structure shown. Values joined by “and” are separate entries in the source; they are usually repeats but may differ in a detail not shown here. Equal entries are not always repeated. Bounds are passed on as bounds.

For the compound `C[C@H](Nc1nc(N)nc(N)c1C#N)c1cc2ccc(F)cc2nc1-c1ccccn1` [Compound A], the pH of filtrate in data set [1] (FaSSIF (pH 6.52), 0.5 h) is on record as 6.55; in data set [1] (FaSSIF (pH 6.52), 2 h), 6.51; in data set [1] (FaSSIF (pH 6.52), 24 h), 6.34; in data set [1] (FeSSIF (pH 4.99), 0.5 h), 5.00; in data set [1] (FeSSIF (pH 4.99), 2 h) it was 4.94; in data set [1] (FeSSIF (pH 4.99), 24 h) it was 4.86. For the same compound, the pH of filtrate is given as 1.19 in data set [1] (SGF (pH 1.21), 0.5 h); 1.16 in data set [1] (SGF (pH 1.21), 2 h); 1.18 in data set [1] (SGF (pH 1.21), 24 h). The amount in solution in data set [1] (FaSSIF, 37 °C, pH 6.52, fassif, thermodynamic from solid, FaSSIF (pH 6.52), 30 min) (solubility at 30 min) came to 370 µg/mL (≈ 924 µM). Besides, the solubility – broadly, how much of the substance goes into solution per volume – at 2 h in data set [1] (FaSSIF, 37 °C, pH 6.52, fassif, thermodynamic from solid, FaSSIF (pH 6.52), 2 h) was 320 µg/mL (≈ 799 µM). In addition, the concentration in solution in data set [1] (FaSSIF, 37 °C, pH 6.52, fassif, thermodynamic from solid, FaSSIF (pH 6.52), 24 h) (solubility at 24 h) was 350 µg/mL (≈ 874 µM). The Solubility – broadly, the dissolved amount per volume that the medium holds – in data set [1] (FeSSIF (pH 4.99), 30 min) is 2060 µg/mL (≈ 5140 µM); in data set [1] (FeSSIF (pH 4.99), 2 h), 1890 µg/mL (≈ 4720 µM); in data set [1] (FeSSIF (pH 4.99), 24 h), 2200 µg/mL (≈ 5490 µM); in data set [1] (SGF (pH 1.21), 30 min), above 4920 µg/mL; in data set [1] (SGF (pH 1.21), 2 h) it was above 4910 µg/mL; in data set [1] (SGF (pH 1.21), 24 h), above 4830 µg/mL. Besides, the “Purity (peak area %) Average - 40° C./75% RH - 7 d” value in data set [2] (40° C./75% RH, 7 d, average) is 98.49 peak area %. Moreover, the “Purity (peak area %) 40° C./75% RH - 7 d” value in data set [2] (40° C./75% RH, 7 d, single determinations) was 98.52 peak area % and 98.45 peak area %. The “Purity (peak area %) Average - 60° C. - 7 d” value in data set [2] (60° C., 7 d, average) was determined as 98.43 peak area %. For the same compound, the “Purity (peak area %) 60° C. - 7 d” value in data set [2] (60° C., 7 d, single determinations) is 98.37 peak area % and 98.50 peak area %. For the same compound, the “decrease of chemical purity” value in data set [2] (60° C., 7 days) is listed as “about 0.16%”. Also, in data set [2] (day 0, average), the “Purity (peak area %) Average - 0 d” value is on record as 98.59 peak area %. Besides, in data set [2] (day 0, single determinations), the “Purity (peak area %) 0 d” value is 98.63 peak area % and 98.55 peak area %.
Take `C[C@H](Nc1ncnc2nc[nH]c12)c1cc2cccc(Cl)c2c(=O)n1-c1ccccc1` [Duvelisib, reference compound]: in data set [3], the average tumor volume is reported as 1496.12 mm^3 and the “relative tumor inhibition rate (TGI)” value is given as 30%.
